# Experiments:
# Assay type in all cases: toxicity, cell-based
# Fibroblast = test: Incucyte cell viability with human fibroblast; conditions: 10 µM, compound concentration 10 uM
# U2OS = test: Incucyte cell viability with U2OS; conditions: human, 10 µM, compound concentration 10 uM
# HEK-293T = test: Incucyte cell viability with HEK293T; conditions: human, 10 µM, compound concentration 10 uM
# [1] = 0 h, replicate number 1, timepoint 0 hours
# [2] = 0 h, replicate number 2, timepoint 0 hours
# [3] = 12 h, replicate number 1, timepoint 12 hours
# [4] = 12 h, replicate number 2, timepoint 12 hours
# [5] = 24 h, replicate number 1, timepoint 24 hours
# [6] = 6 h, replicate number 1, timepoint 6 hours
# [7] = 18 h, replicate number 2, timepoint 18 hours
# [8] = 6 h, replicate number 2, timepoint 6 hours
# [9] = 18 h, replicate number 1, timepoint 18 hours
# [10] = 24 h, replicate number 2, timepoint 24 hours
# Also: unitless GR value; below 1 slowed growth and below 0 cell loss.
Structure (SMILES),Growth Rate (Fibroblast; [2]),Growth Rate (Fibroblast; [3]),Growth Rate (Fibroblast; [4]),Growth Rate (Fibroblast; [5]),Growth Rate (U2OS; [1]),Growth Rate (U2OS; [6]),Growth Rate (U2OS; [3]),Growth Rate (U2OS; [7]),Growth Rate (U2OS; [5]),Growth Rate (HEK-293T; [1]),Growth Rate (HEK-293T; [2]),Growth Rate (HEK-293T; [6]),Growth Rate (HEK-293T; [3]),Growth Rate (HEK-293T; [9]),Growth Rate (HEK-293T; [5]),Growth Rate (HEK-293T; [10]),Growth Rate (U2OS; [2]),Growth Rate (U2OS; [9]),Growth Rate (Fibroblast; [6]),Growth Rate (Fibroblast; [9]),also measured
Nc1nc(Nc2ccccc2)nc2c1ncn2[C@@H]1O[C@H](CO)[C@@H](O)[C@H]1O,0.2,0.83,0.96,0.93,0.4,0.95,0.84,0.91,0.93,0.49,-0.14,0.52,0.7,0.76,0.85,0.9,,,,,Growth Rate (Fibroblast; [1]): 0.77; Growth Rate (HEK-293T; [8]): 0.76; Growth Rate (HEK-293T; [4]): 0.63; Growth Rate (HEK-293T; [7]): 0.95
NCCc1c[nH]c2ccc(C(N)=O)cc12.O=C(O)/C=C\C(=O)O,-0.08,,,,-0.1,0.87,,,0.83,0.4,-0.18,0.61,0.96,0.9,0.9,,0.34,0.89,,,Growth Rate (Fibroblast; [1]): 0.89; Growth Rate (Fibroblast; [7]): 0.95
Brc1c(N=C2NCCN2)ccc2nccnc12.O=C(O)C(O)C(O)C(=O)O,0.6,0.82,0.94,0.87,0.29,0.6,0.41,0.91,0.89,0.76,0.92,0.47,0.79,0.92,0.83,0.88,,0.78,0.39,0.86,Growth Rate (Fibroblast; [8]): 0.7; Growth Rate (Fibroblast; [7]): 0.83; Growth Rate (Fibroblast; [10]): 0.91; Growth Rate (HEK-293T; [8]): 0.95; Growth Rate (HEK-293T; [4]): 0.72
CCCN[C@H]1CCc2nc(N)sc2C1.Cl.Cl,-0.13,0.31,0.7,,,,,0.92,,0.73,0.77,,0.99,0.97,0.93,0.81,0.18,,-0.38,0.84,Growth Rate (Fibroblast; [8]): 0.73; Growth Rate (U2OS; [4]): 0.97; Growth Rate (HEK-293T; [8]): 0.07; Growth Rate (HEK-293T; [4]): 0.53; Growth Rate (HEK-293T; [7]): 0.77
COc1c(C)cc(NC(=O)c2nn(Cc3ccc(F)cc3)c3c2CN(C(=O)c2ccc[nH]2)C[C@]3(C)C(N)=O)cc1C,0.51,-0.33,0.15,-0.31,-0.69,0.56,0.56,0.66,0.61,0.79,,0.35,0.13,0.11,0.15,,-0.16,0.61,-0.71,-0.18,Growth Rate (Fibroblast; [1]): 0.8; Growth Rate (Fibroblast; [8]): 0.46; Growth Rate (Fibroblast; [7]): 0.32; Growth Rate (Fibroblast; [10]): 0.29; Growth Rate (U2OS; [8]): 0.73; Growth Rate (U2OS; [4]): 0.68; Growth Rate (U2OS; [10]): 0.67
Cc1ccccc1N1CCN(S(=O)(=O)C[C@]23CC[C@H](C[C@@H]2NC(=O)[C@@H](N)CCS(C)(=O)=O)C3(C)C)CC1.Cl,0.56,,0.8,,-0.8,0.91,0.85,,0.89,0.81,0.34,0.8,0.81,0.84,0.97,0.93,-0.25,0.77,,,Growth Rate (Fibroblast; [1]): 0.33; Growth Rate (Fibroblast; [7]): 0.91; Growth Rate (Fibroblast; [10]): 0.76; Growth Rate (U2OS; [10]): 1; Growth Rate (HEK-293T; [4]): 0.75; Growth Rate (HEK-293T; [7]): 0.92
O=c1ccn([C@@H]2O[C@H](COP(=O)([O-])OP(=O)([O-])OP(=O)([O-])O)[C@@H](O)[C@H]2O)c(=O)[nH]1.[Na+].[Na+].[Na+],0.81,0.12,0.75,0.13,0.49,0.21,0.6,0.93,0.99,0.09,0.62,0.64,0.84,0.92,0.85,0.72,0.48,0.83,0.2,0.29,Growth Rate (Fibroblast; [8]): 0.66; Growth Rate (Fibroblast; [7]): 0.88; Growth Rate (Fibroblast; [10]): 0.78; Growth Rate (U2OS; [8]): 0.83; Growth Rate (U2OS; [4]): 0.94; Growth Rate (U2OS; [10]): 0.94; Growth Rate (HEK-293T; [8]): 0.41; Growth Rate (HEK-293T; [4]): 0.64; Growth Rate (HEK-293T; [7]): 0.75
CCCN(CCC)[C@@H]1CCc2ccc3[nH]c(C#N)cc3c2C1.Cl,-0.06,,,0.95,0.61,0.8,,,0.95,0.55,0.54,0.81,0.81,,1,0.95,0.9,0.73,0.01,0.97,
CCCCCC(O)/C=C/[C@H]1C(=O)CC(O)C1C/C=C\CCCC(=O)O (stereo partly specified),-0.28,0.36,,0.54,-0.23,0.59,0.59,0.78,0.72,0.99,,0.68,0.59,0.69,0.58,,0.05,0.66,-0.61,0.47,Growth Rate (Fibroblast; [1]): 0.39; Growth Rate (U2OS; [4]): 0.84; Growth Rate (U2OS; [10]): 0.87

# — ChEMBL document CHEMBL5058564, “EUbOPEN Chemogenomics Library 2 (Incucyte)” (2022)
